Assay results reported in publication PMC6433232, “Targeting mitochondria in cancer therapy could provide a basis for the selective anti-cancer activity” (PLoS ONE, 2019).
Like-named read-outs stand apart in the source and are kept apart here.

What was measured:
[1] = tested on: Complex I (bovine heart mitochondria); assay: MitoCheck Complex I activity assay; details: 30 μM; for Mito Check I, enzyme residual activity as compared to DMSO-treated sample: bovine heart mitochondria, NADH oxidation
Description: MitoCheck Complex I activity was determined as described in the manual of the manufacturer’s manual (Cayman). Briefly, compounds (30 μM) or DMSO were mixed with the Complex I activity assay buffer that contained bovine heart mitochondria reagent, NADH, and ubiquinone in the presence of KCN to inhibit complex IV activity. The level of Complex I activity was monitored in a kinetic assay of NADH oxidation by measuring a decrease in absorbance at 340 nm. The residual Complex I activity was calculated by dividing the rate of compound wells by the rate of DMSO wells for the linear portion of the curve.
To test possible effects of compounds on ETC, we analyzed the Complex I-mediated NADH oxidation using a MitoCheck Complex I Activity Assay Kit. The level of NADH oxidation was measured by a decrease in absorbance at 340 nm and expressed as percentage of residual activity in relation to DMSO-treated mitochondria (Table 1). […] Complex I activity was estimated by the rate of NADH oxidation which was also affected by NADH/NADPH-dehydrogenase-mediated redox cycling.

[2] = tested on: breast carcinoma HCC1187 cells; assay: cells; format: cell-based; details: for CC50: Homo sapiens; for Selective cytotoxicity index HCC 1187 ATO: human
Source text: For further analyses, we used compounds that have the selective cytotoxicity index either above 20 (non-toxic compounds) or below 1 (toxic compounds) with the aim to identify targets that are responsible for the selective activity of the identified compounds toward cancer cells. To confirm that the effects of the selected compounds are not only specific to MIA PaCa-2 cells, we evaluated their cytotoxic activities on breast carcinoma HCC1187 cells (Table 1). […] For easy comparison, the data with MIA PaCa-2 cells were also included in Table 1. […] We also noticed that, again with a few exceptions, HCC1187 cells are more resistant to the non-toxic compounds in the presence of ATO as compared to MIA PaCa-2 cells. In contrast, HCC1187 cells are more sensitive to all toxic compounds in the presence of ATO as compared to MIA PaCa-2 cells. The high sensitivity of HCC1187 cells to toxic compounds contributed to the increased selective cytotoxicity index.

[3] = tested on: human primary hepatocytes; assay: cells; details: Hepatocyte
Source text: (§1) We selected hepatocytes as normal cells because hepatocytes are mediate toxicity to multiple drugs and are used as a standard to assess toxicity of drugs in vitro [28]. […] For comparison with the standard of care, doxorubicin was also included in this analysis.

[4] = tested on: Recombinant NADH/NADPH dehydrogenase; assay: NADH/NADPH dehydrogenase-mediated ROS generation assay; format: biochemical; details: 30 μM, 4 h at 37°C; for H2O2 generation, NADH/NADPH dehydrogenase -: absence of NADH/NADPH dehydrogenase; for H2O2 generation, NADH/NADPH dehydrogenase +: presence of NADH/NADPH dehydrogenase
Description: Recombinant NADH/NADPH dehydrogenase (0.5 units/well) in a 96-well plate was incubated in 100 μl of the assay buffer (50 mM potassium phosphate buffer, pH 7.5 supplemented with 1 mM EDTA) containing NADPH (3 μM) and superoxide dismutase (SOD) (100 units/well) with and without compound (30 μM) for 4 h at 37°C. At the end of incubation, the level of hydrogen peroxide was measured using a Hydrogen Peroxide Assay kit (Cayman). Control samples were without NADH/NADPH dehydrogenase. The rate of NADH/NADPH dehydrogenase- and compound-mediated ROS production was determined by subtracting values that were obtained in the absence of NADPH dehydrogenase. One unit of NADH/NADPH dehydrogenase was defined as the amount of enzyme required to reduce 1.0 μmole cytochrome C per min/mg in the presence of menadione substrate at 37°C. One unit of SOD was defined as the amount of enzyme required to inhibit reduction of cytochrome C by 50% in a coupled system with xanthine oxidase at pH 7.8 at 25°C in a 3.0 mL reaction volume. Xanthine oxidase concentration should produce an initial ΔA550 of 0.025 ± 0.005 per min.
As the next step, we examined the capability of the selected compounds to generate ROS in the presence or absence of NADH/NADPH dehydrogenase (Table 1). ROS can be generated by NADH/NADPH-dehydrogenase via the one electron reduction of a quinone ring of 1,4-NQs. Unstable half-reduced quinones (semiquinones) transfer electrons to molecular oxygen, thus generating superoxide anion radicals (O2^●-), which are converted by SOD to hydrogen peroxide. We believe that our assay measuring compound’s ability to generate H2O2 in the presence or absence of NADH/NADPH dehydrogenase more closely resembles conditions inside the cell than the assay designed to measure compound’s redox potential values. […] To determine the ability of compounds to induce ROS, compounds were incubated for 4 h at 37°C with and without NADH/NADPH-dehydrogenase in the presence of NADPH as an electron donor and SOD to convert generated superoxide radicals into hydrogen peroxide. At the end of incubation, 10-acetyl-3,7-dihydroxyphenoxazine (ADHP) and horseradish peroxidase (HRP) were added to the reaction and the level of HRP-mediated formation of the fluorogenic product, resorufin, was measured on a plate reader. ROS production was detected in reactions with either the toxic or non-toxic compounds.

[5] = in vitro; details: human
Source text: as §1

[6] = tested on: MIA PaCa-2 cells; assay: Hydrogen peroxide cell-based assay (ROS induction), MIA PaCa-2 cells; details: Homo sapiens, hydrogen peroxide level relative to DMSO-treated cells (100%), read-out: ROS increase, % MIA PaCa-2
Description: Cells were incubated for 2 h with either compounds (30 μM) or DMSO in a 96-well plate. After the treatment, 80 μl of cell culture medium was collected and the level of hydrogen peroxide was determined using a Hydrogen Peroxide Cell-Based Assay kit (Cayman).
Cells were incubated with the compounds for 4 h and the level of ROS induction was measured by a hydrogen peroxide cell-based assay kit. Compounds were assayed at a fixed concentration of 30 μM and the measured level of hydrogen peroxide was expressed as percentage in relation to DMSO-treated cells (100%). […] This distinction was more evident for compounds with the highest selective cytotoxicity index. […] We conclude that the selective induction of ROS in cancer cells is required but not sufficient factor for the selective anti-tumor activity.

[7] = Distribution coefficient LogD; format: physicochemical; details: pH 7.4
Source text: We conclude that the analysis of the octanol-water partitioning is not sufficient to establish a link between degree of lipophilicity and biological activities of the selected compounds.

[8] = biological target: T1, human GAPDH enzyme (Homo sapiens, UniProt P04406); assay: GAPDH activity assay in MIA PaCa-2 cells; format: cell-based; details: 2 h; for remaining activity at 30 µM: read-out: GAPDH, enzyme residual activity as compared to DMSO-treated sample
T1 construct: endogenous in cells; host or cells: MIA PaCa-2 cells
Description: Cells were incubated for 2 h with either compounds (30 μM) or DMSO in a 6-well plate. Next, cells were collected in 200 μl of PBS and disrupted by sonication. Insoluble material was removed by centrifugation. The level of GAPDH activity was determined by GAPDH activity assay kit (BioVision).
As a final step, we evaluated the inhibitory activity of the selected compounds against human GAPDH enzyme in a cell-based assay using MIA PaCa-2 cells (Table 1). Cells were pre-incubated with compounds for 2 h at 37°C followed by cell lysis using sonication and GAPDH activity assay. The ability of compounds to inhibit GAPDH was expressed as percentage of GAPDH residual activity with respect to DMSO-treated cells. […] Similar to the GSR activity assay, only two of the most toxic compounds 31 and 32, were able to inhibit GAPDH by 95 and 97%, respectively.

[9] = tested on: pancreatic cancer MIA PaCa-2 cells; assay: cells; details: for EC50 / CC50: Homo sapiens; for EC50: MIA PaCa-2, read-out: EC50, μM MIA PaCa-2; for CC50: MIA PaCa-2, read-out: LC50 MIA PaCa-2
Description: Fig 1 A, Structure of NSC130362. B, Dose response curve of NSC130362 in MIA PaCa-2 cells. Cells were pre-incubated with NSC130362 for 2 h followed by addition of ATO (5 μM) and incubation for an additional 24 h. At the end of the treatment, the ratio of dead cells was determined by a CellTiterGlo reagent.

[10] = HCC1187, compound alone, unit not given in Table 1, read-out: LC50 HCC1187
[11] = octanol/water, read-out: LogD, pH = 7.4
[12] = HCC1187, read-out: LC50 HCC1187

T1 sequence (P04406 whole entry): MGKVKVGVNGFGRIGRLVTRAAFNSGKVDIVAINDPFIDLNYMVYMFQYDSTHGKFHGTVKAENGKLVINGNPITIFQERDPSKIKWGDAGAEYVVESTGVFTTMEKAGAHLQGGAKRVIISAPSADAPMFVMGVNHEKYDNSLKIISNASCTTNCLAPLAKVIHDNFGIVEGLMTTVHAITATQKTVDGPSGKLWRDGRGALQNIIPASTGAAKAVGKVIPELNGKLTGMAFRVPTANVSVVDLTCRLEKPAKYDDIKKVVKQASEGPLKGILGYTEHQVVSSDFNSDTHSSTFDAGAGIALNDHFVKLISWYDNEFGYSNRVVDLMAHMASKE

| SMILES | Mito Check I, enzyme residual activity as compared to DMSO-treated sample [1] [%] | CC50 [2, 10] [µM] | Selective cytotoxicity index HCC 1187 ATO [2] | EC50 ([3]; read-out: EC50, μM Hepatocytes) [µM] | H2O2 generation, NADH/NADPH dehydrogenase - [4] [µM] | H2O2 generation, NADH/NADPH dehydrogenase + [4] [µM] | CC50 ([5]; primary hepatocytes) [µM] | activity at 30 µM [6] [%] | logD [7, 11] | remaining activity at 30 µM [8] [%] | EC50 [9] [µM] | CC50 [9] [µM] | also measured |
| --- | --- | --- | --- | --- | --- | --- | --- | --- | --- | --- | --- | --- | --- |
| O=C1C(Cl)=C(NCCO)C(=O)c2ccccc21 [compound 17] | 38 | 19.2 | 46.7 | 83 | 2.6 | 4.8 | 83 | 295 | 1.12 | 89 | 9.8 | 9.8 | dose-response in MIA PaCa-2 cells ([9]; in the presence of ATO (5 μM), 24 h): induced a dose-response over a hundred-fold concentration range |
| Cc1ccccc1NC1=C(Cl)C(=O)c2ccccc2C1=O [compound 40] | 103 | 9 | – | 24.5 | 5.0 | 2.9 | 24.5 | 111 | 0 | 88 | 78.5 | 78.5 | – |
| CCNC1=C(Cl)C(=O)c2ccccc2C1=O [compound 3] | 93 | 23.6 | – | 81.9 | 3.9 | 6.3 | 81.9 | 182 | 1.01 | 100 | 59 | 59 | – |
| CCCCOCCCNC1=C(Cl)C(=O)c2ccccc2C1=O [compound 26] | 112 | 1.7 | – | 4.8 | 5.9 | 3.8 | 4.8 | 889 | 0 | 94 | 26.6 | 26.6 | EC50 ([3]; read-out: EC50, toxicity to hepatocytes): 3.6 µM |
| NC1=C(Cl)C(=O)c2ccccc2C1=O [compound 1, 2-chloro-3-amino-1,4-NQ] | 145 | 10.8 | – | 17 | 4.1 | 7.6 | 17 | 331 | 2.01 | 100 | 8.4 | 8.4 | stimulation of Complex I activity [1]: more than 30% |
| O=C1C(Nc2ccccc2)=CC(=O)c2ncccc21 [compound 67, reference compound] | 116 | 3 | – | 17.8 | 5.5 | 11.9 | 17.8 | 783 | 3.45 | 76 | 1 | 1 | increase in anti-cancer activity ([9]; versus compound 64): approximately 10 fold |
| CC1=C(N2CC2)C(=O)c2ccccc2C1=O [compound 55] | 72 | – | 15.8 | > 90 | 2.1 | 3.3 | – | 416 | – | 100 | 3.1 | 3.1 | CC50 [2, 12]: 51.8 µM; CC50 [5]: > 90 µM; logD [7]: 0.12; increase in anti-cancer activity ([9]; versus compound 15): 2 fold |
| CCCC(=O)NC1=C(Cl)C(=O)c2ccccc2C1=O [compound 31] | 159 | 1 | – | 1.6 | 5.7 | 9.0 | 1.6 | 251 | 2.03 | 5 | 10.4 | 10.4 | stimulation of Complex I activity [1]: more than 30%; inhibition of GAPDH ([8]; 30 μM): almost completely inhibited GAPDH; inhibition at 30 µM [8]: 95% |
| CC1CN1C1=C(Cl)C(=O)c2ccccc2C1=O (centres unmarked) [compound 16] | 58 | – | 128.6 | 78 | 2.1 | 3.8 | – | 637 | – | 100 | 6.9 | 6.9 | CC50 [2, 12]: 3.6 µM; CC50 [5]: 78 µM; logD [7]: 0.7 |
